Source: US11912703B2, “6-azaindole compounds” (BRISTOL-MYERS SQUIBB COMPANY, priority 2017, dated 2024)
Where two headings read alike, the source gives them in different places.

Assays:
[1] = molecular target: human TLR7 (Homo sapiens (Human), UniProt Q9NYK1); experiment: TLR7 inhibition reporter assay (HEK-Blue SEAP); format: cell-based; details: HEK-Blue cells overexpressing human TLR7, gardiquimod 7.5 μM stimulation
Description: (§1) HEK-Blue™-cells (Invivogen) overexpressing human TLR7, TLR8 or TLR9 receptors were used for screening inhibitors of these receptors using an inducible SEAP (secreted embryonic alkaline phosphatase) reporter gene under the control of the IFN-β minimal promoter fused to five NF-κB and AP-1-binding sites. Briefly, cells are seeded into Greiner 384 well plates (15000 cells per well for TLR7, 20,000 for TLR8 and 25,000 for TLR9) and then treated with test compounds in DMSO to yield a final dose response concentration range of 0.05 nM-50 μM. After a 30 minute compound pre-treatment at room temperature, the cells are then stimulated with a TLR7 ligand (gardiquimod at a final concentration of 7.5 μM), TLR8 ligand (R848 at a final concentration of 15.9 μM) or TLR9 ligand (ODN2006 at a final concentration of 5 nM) to activate NF-κB and AP-1 which induce the production of SEAP. After a 22 hour incubation at 37° C., 500 CO2, SEAP levels are determined with the addition of HEK-Blue™ Detection reagent (Invivogen), a cell culture medium that allows for detection of SEAP, according to manufacturer's specifications.

[2] = molecular target: human TLR8 (Homo sapiens (Human), UniProt Q9NR97); experiment: TLR8 inhibition reporter assay (HEK-Blue SEAP);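 further: SEAP driven by IFN-β minimal promoter with five NF-κB and AP-1 sites, compounds tested 0.05 nM to 50 µM, 22 h incubation, inhibition relative to agonist plus DMSO wells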
Description: as §1

[3] = molecular target: human TLR9 (Homo sapiens (Human), UniProt Q9NR96); experiment: TLR9 inhibition reporter assay (HEK-Blue SEAP);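 further: SEAP driven by IFN-β minimal promoter carrying five NF-κB and AP-1 sites, 22 h at 37 °C, compounds 0.05 nM–50 µM, inhibition scaled between agonist-plus-DMSO and reference-inhibitor wells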
[4] = read-out: TLR8 IC50; HEK-Blue cells overexpressing human TLR8, R848 15.9 μM stimulation, SEAP reporter
[5] = read-out: TLR9 IC50; HEK-Blue cells overexpressing human TLR9, ODN2006 5 nM stimulation, SEAP reporter
[6] = read-out: TLR8 IC50; HEK-Blue cells overexpressing human TLR8; R848 15.9 μM stimulation; SEAP reporter
[7] = read-out: TLR9 IC50; HEK-Blue cells overexpressing human TLR9; ODN2006 5 nM stimulation; SEAP reporter

human TLR7, sequence (Q9NYK1 27-1049): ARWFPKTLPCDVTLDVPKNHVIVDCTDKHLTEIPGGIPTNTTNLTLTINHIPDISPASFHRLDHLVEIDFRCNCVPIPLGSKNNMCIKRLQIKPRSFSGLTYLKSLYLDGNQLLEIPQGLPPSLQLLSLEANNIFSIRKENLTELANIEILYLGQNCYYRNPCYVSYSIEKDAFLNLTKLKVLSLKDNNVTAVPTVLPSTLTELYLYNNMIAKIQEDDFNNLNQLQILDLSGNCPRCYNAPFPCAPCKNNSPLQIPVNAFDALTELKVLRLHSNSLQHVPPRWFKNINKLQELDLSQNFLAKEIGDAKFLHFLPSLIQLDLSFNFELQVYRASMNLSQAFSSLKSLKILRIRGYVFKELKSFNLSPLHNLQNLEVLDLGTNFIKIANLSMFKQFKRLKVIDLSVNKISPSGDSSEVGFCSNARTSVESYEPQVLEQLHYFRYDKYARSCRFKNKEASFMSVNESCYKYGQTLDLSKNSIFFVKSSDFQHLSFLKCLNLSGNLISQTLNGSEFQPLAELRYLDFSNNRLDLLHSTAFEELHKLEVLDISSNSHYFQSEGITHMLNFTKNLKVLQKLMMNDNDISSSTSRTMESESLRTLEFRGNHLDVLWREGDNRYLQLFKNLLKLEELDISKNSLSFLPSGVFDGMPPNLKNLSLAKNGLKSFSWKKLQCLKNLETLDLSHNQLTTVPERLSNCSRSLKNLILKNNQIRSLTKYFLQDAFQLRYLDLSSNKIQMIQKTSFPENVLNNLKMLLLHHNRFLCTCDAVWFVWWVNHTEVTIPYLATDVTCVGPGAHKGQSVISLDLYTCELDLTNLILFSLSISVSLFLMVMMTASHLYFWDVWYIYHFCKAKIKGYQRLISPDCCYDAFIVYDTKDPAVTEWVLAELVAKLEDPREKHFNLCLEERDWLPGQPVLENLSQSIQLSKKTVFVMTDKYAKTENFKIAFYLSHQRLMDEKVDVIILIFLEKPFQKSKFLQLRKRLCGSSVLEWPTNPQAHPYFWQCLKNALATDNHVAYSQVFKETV
human TLR9, sequence (Q9NR96 26-1032): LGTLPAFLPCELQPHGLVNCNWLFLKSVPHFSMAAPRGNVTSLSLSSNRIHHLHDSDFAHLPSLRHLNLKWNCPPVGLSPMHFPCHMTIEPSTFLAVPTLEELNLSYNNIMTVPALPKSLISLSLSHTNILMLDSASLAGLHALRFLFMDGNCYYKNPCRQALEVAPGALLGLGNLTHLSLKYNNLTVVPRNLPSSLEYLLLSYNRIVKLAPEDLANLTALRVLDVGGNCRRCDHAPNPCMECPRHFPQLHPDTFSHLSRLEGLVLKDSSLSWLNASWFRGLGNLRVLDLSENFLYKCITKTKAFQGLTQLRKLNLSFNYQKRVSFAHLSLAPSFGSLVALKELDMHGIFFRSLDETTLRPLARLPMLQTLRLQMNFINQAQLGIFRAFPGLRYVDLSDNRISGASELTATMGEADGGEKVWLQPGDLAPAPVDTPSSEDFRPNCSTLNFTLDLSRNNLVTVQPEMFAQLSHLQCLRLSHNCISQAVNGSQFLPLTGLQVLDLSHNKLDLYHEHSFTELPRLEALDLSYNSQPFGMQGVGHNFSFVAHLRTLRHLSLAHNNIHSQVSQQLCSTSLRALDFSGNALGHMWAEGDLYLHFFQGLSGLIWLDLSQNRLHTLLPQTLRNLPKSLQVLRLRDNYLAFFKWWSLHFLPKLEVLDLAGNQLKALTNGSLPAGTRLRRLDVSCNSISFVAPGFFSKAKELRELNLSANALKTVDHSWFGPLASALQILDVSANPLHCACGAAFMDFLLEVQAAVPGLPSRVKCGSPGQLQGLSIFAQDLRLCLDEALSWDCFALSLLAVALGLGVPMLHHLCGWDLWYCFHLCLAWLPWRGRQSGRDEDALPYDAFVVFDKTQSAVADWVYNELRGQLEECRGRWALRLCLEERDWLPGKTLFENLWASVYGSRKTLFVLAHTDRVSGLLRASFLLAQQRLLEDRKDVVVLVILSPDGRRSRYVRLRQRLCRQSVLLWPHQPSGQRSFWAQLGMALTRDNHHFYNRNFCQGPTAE
human TLR8, sequence (Q9NR97 27-1041): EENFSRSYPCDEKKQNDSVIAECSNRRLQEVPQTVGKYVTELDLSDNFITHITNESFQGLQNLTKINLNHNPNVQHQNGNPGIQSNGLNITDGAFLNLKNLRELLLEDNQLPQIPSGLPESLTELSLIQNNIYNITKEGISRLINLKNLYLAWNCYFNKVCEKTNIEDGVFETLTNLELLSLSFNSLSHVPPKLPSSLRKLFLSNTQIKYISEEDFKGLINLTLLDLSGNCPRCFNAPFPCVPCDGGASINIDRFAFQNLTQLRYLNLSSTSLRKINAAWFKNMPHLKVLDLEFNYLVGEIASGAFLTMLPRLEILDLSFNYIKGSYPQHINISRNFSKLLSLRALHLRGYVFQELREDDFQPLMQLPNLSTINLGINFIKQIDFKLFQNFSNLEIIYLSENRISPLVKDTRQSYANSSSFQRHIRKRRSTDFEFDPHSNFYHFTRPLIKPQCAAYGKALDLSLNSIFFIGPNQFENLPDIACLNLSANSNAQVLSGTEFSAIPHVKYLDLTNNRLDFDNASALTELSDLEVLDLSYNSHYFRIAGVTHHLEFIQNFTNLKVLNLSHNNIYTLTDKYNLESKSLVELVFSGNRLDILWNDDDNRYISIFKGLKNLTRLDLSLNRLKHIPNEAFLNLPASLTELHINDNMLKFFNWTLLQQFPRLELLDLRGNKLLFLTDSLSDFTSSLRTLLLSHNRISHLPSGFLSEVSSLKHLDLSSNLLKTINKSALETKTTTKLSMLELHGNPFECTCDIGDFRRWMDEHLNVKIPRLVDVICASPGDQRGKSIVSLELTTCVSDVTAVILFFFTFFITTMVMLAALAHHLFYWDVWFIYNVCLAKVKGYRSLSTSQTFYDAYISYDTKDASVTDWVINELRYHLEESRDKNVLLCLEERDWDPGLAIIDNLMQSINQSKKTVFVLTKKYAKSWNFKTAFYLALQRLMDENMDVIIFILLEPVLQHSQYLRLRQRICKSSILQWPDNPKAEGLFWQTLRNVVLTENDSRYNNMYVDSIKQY

Row | Compound | IC50 [1] [nM] | IC50 [2, 4] [nM] | IC50 [3, 5] [nM] | IC50 [2, 6] [nM] | IC50 [3, 7] [nM] | IC50 [3] [nM]
1 | CNC(=O)CN1CC2(C1)CN(c1ncc3[nH]c(-c4cc(OC)c5ncnn5c4)c(C(C)C)c3c1F)C2 [Example 356, 2-(6-(4-fluoro-3-isopropyl-2-(8-methoxy-[1,2,4]triazolo[1,5-a]pyridin-6-yl)-1H-pyrrolo[2,3-c]pyridin-5-yl)-2,6-diazaspiro[3.3]heptan-2-yl)-N-methylacetamide] | 15 | 6.1 | 18500 |  |  | 
2 | Cc1c(-c2[nH]c3cnc(N4CCN(CC(=O)N5CCOCC5)C[C@H]4C)c(F)c3c2C(C)C)cn2ncnc2c1C [Example 469] | 13 |  |  | 3.5 | 47900 | 
3 | Cc1c(-c2[nH]c3cnc(N4CCN(C)C[C@H]4C)c(F)c3c2C(C)C)cn2ncnc2c1C [Example 454] | 0.05 |  |  | 0.05 | 10900 | 
4 | Cc1cc(-c2[nH]c3cnc(N4CCC(N(C)CC(C)(C)C)CC4)c(F)c3c2C(C)C)cn2ncnc12 [Example 196] | 3 | 1.1 | 2080 |  |  | 
5 | CNC(=O)CN1CCN(c2cc3c(C(C)C)c(-c4cc(C)c5ncnn5c4)[nH]c3cn2)CC1 [Example 302] | 1590 | > 3120 | > 50000 |  |  | 
6 | COc1cc(-c2[nH]c3cnc(N4CCC(NC(C)C)CC4)c(F)c3c2C(C)C)cn2ncnc12 [Example 157] | 0.8 | 0.51 | 4180 |  |  | 
7 | Cc1c(-c2[nH]c3cnc(C4CCC(NC(C)C)CC4)c(C)c3c2C(C)C)cn2ncnc2c1C (centres unmarked) [Example 277] | 5.5 | 13 | 265 |  |  | 
8 | COCCN1CCN(c2ncc3[nH]c(-c4cc(OC)c5ncnn5c4)c(C(C)C)c3c2F)CC1 [Example 361] | 3.8 | 0.76 | 4850 |  |  | 
9 | COc1cc(-c2[nH]c3cnc(C4CCC(N5CC6(COC6)C5)CC4)c(F)c3c2C(C)C)cn2ncnc12 (centres unmarked) [Example 226] | 0.51 |  |  | 0.73 | 1290 | 
10 | Cc1cc(-c2[nH]c3cnc(C4CCC(NC5COC5)CC4)c(F)c3c2C(C)C)cn2ncnc12 (centres unmarked) [Example 107] | 3.6 | 4.5 | 2060 |  |  | 
11 | CNC(=O)CN(C)C1CCC(c2cc3c(C(C)C)c(-c4cc(OC)c5ncnn5c4)[nH]c3cn2)CC1 (centres unmarked) [Example 328] | 11 | 60 | 1390 |  |  | 
12 | COc1cc(-c2[nH]c3cnc(C4CCC(N5CCC5)CC4)c(F)c3c2C(C)C)cn2ncnc12 (centres unmarked) [Example 75] | 2.5 | 5.6 | 447 |  |  | 
13 | Cc1c(-c2[nH]c3cnc(N4CCN(C5CCC5)C[C@H]4C)c(F)c3c2C(C)C)cn2ncnc2c1C [Example 458] | 2.5 |  |  | 1.2 | 16800 | 
14 | COc1cc(-c2[nH]c3cnc(N4CCN(CC#N)CC4)c(F)c3c2C(C)C)cn2ncnc12 [Example 365] | 0.42 | 0.51 | 1490 |  |  | 
15 | COc1cc(-c2[nH]c3cnc(C4CCC(N(C)C)CC4)cc3c2C(C)C)cn2ncnc12 (centres unmarked) [Example 340] | 1270 | 708 | 11500 |  |  | 
16 | CCN(C)C1CCN(c2ncc3[nH]c(-c4cc(OC)c5ncnn5c4)c(C(C)C)c3c2C)CC1 [Example 138] | 0.26 | 0.49 | 1900 |  |  | 
17 | COc1cc(-c2[nH]c3cnc(C4CCC(NCC(C)(C)C)C4)cc3c2C(C)C)cn2ncnc12 (centres unmarked) [Example 95] | 41 | 35 | 1380 |  |  | 
18 | Cc1c(-c2[nH]c3cnc(C4CCC(NCC(C)(C)C)CC4)cc3c2C(C)C)cn2ncnc2c1C (centres unmarked) [Example 351] | 11 | 5.4 | 345 |  |  | 
19 | Cc1c(N2CCC(N3CCC3)CC2)ncc2[nH]c(-c3cc(C)c4ncnn4c3)c(C(C)C)c12 [Example 279] | 0.65 | 1.5 | 1110 |  |  | 
20 | CCN(C)C1CCC(c2ncc3[nH]c(-c4cn5ncnc5c(C)c4C)c(C(C)C)c3c2C)CC1 (centres unmarked) [Example 143] | 33 | 33 | 683 |  |  | 
21 | Cc1c(-c2[nH]c3cnc(N4CC5(CN(CC#N)C5)C4)c(F)c3c2C(C)C)cn2ncnc2c1C [Example 397] | 48 | 30 | 43200 |  |  | 
22 | Cc1c(-c2[nH]c3cnc(N4CCN(CC5CCOCC5)CC4)c(F)c3c2C(C)C)cn2ncnc2c1C [Example 411] | 9.6 | 0.18 | 11200 |  |  | 
23 | COc1cc(-c2[nH]c3cnc(C4CCC(NCC5(C)COC5)CC4)c(F)c3c2C(C)C)cn2ncnc12 (centres unmarked) [Example 193] | 0.84 | 0.4 | 1250 |  |  | 
24 | COc1cc(-c2[nH]c3cnc(C4CCN(C5COC5)CC4)cc3c2C(C)C)cn2ncnc12 [Example 306] | 3.9 | 16 | 786 |  |  | 

Row | Compound | IC50 [1] [nM] | IC50 [2, 4] [nM] | IC50 [3, 5] [nM] | IC50 [2, 6] [nM] | IC50 [3, 7] [nM] | IC50 [3] [nM]
25 | Cc1c(-c2[nH]c3cnc(N4CC5(CN(C(=O)CN6CCOCC6)C5)C4)c(F)c3c2C(C)C)cn2ncnc2c1C [Example 399, 1-(6-(2-(7,8-dimethyl-[1,2,4]triazolo[1,5-a]pyridin-6-yl)-4-fluoro-3-isopropyl-1H-pyrrolo[2,3-c]pyridin-5-yl)-2,6-diazaspiro[3.3]heptan-2-yl)-2-morpholinoethan-1-one] | 409 | 4.1 |  |  |  | > 50000
26 | COc1cc(-c2[nH]c3cnc(N4CCC(NCC(N)=O)CC4)cc3c2C(C)C)cn2ncnc12 [Example 345] | 11 | 13 | 712 |  |  | 
27 | CC(=O)N1CCN(c2ncc3[nH]c(-c4cn5ncnc5c(C)c4C)c(C(C)C)c3c2F)CC1 [Example 427] | 35 | 37 | > 50000 |  |  | 
28 | COc1cc(-c2[nH]c3cnc(C4CCC(N5CC6(COC6)C5)CC4)c(C)c3c2C(C)C)cn2ncnc12 (centres unmarked) [Example 246] | 2 | 17 | 705 |  |  | 
29 | CCN(C)C1CCC(c2ncc3[nH]c(-c4cc(OC)c5ncnn5c4)c(C(C)C)c3c2F)CC1 (centres unmarked) [Example 228] | 1.5 |  |  | 2.6 | 812 | 
30 | Cc1c(-c2[nH]c3cnc(C4CCC(N5CCC5)CC4)cc3c2C(C)C)cn2ncnc2c1C (centres unmarked) [Example 335] | 4.3 | 42 | 669 |  |  | 
31 | CCN(C)C1CCN(c2ncc3[nH]c(-c4cc(C)c5ncnn5c4)c(C(C)C)c3c2C)CC1 [Example 235] | 0.24 | 1 | 2210 | 1 | 2210 | 
32 | Cc1c(-c2[nH]c3cnc(N4CCN(CC5CCOCC5)CC4)c(C)c3c2C(C)C)cn2ncnc2c1C [Example 419] | 32 | 1.4 | 5900 |  |  | 
33 | COCCN1CCN(c2ncc3[nH]c(-c4cn5ncnc5c(C)c4C)c(C(C)C)c3c2F)CC1 [Example 424] | 6.3 | 0.39 | 17700 |  |  | 
34 | CNC(=O)CN1CCC(c2cc3c(C(C)C)c(-c4cc(C)c5ncnn5c4)[nH]c3cn2)CC1 [Example 287] | 2 | 16 | 718 |  |  | 
35 | COc1cc(-c2[nH]c3cnc(N4CCC(N5CCC5)CC4)c(F)c3c2C(C)C)cn2ncnc12 [Example 253] | 0.97 | 0.77 | 2860 |  |  | 
36 | Cc1c(-c2[nH]c3cnc(N4CCN(CC5(C)COC5)CC4)c(F)c3c2C(C)C)cn2ncnc2c1C [Example 410] | 15 | 1.3 | > 50000 |  |  | 
37 | COc1cc(-c2[nH]c3cnc(N4CCC(N(C)CC(N)=O)CC4)c(F)c3c2C(C)C)cn2ncnc12 [Example 222] | 3.2 |  |  | 2.7 | 5770 | 
38 | COCCNC1CCC(c2cc3c(C(C)C)c(-c4cn5ncnc5c(C)c4C)[nH]c3cn2)CC1 (centres unmarked) [Example 348] | 3.5 | 9 | 468 |  |  | 
39 | Cc1c(-c2[nH]c3cnc(C4CCC(NCC5(C)COC5)CC4)c(C)c3c2C(C)C)cn2ncnc2c1C (centres unmarked) [Example 204] | 6.6 | 3.1 | 466 |  |  | 
40 | Cc1c(-c2[nH]c3cnc(N4CCN(CC5CC5)CC4)c(F)c3c2C(C)C)cn2ncnc2c1C [Example 430] | 5.9 | 0.27 | 6110 |  |  | 
41 | CCN(C)C1CCC(c2cc3c(C(C)C)c(-c4cc(OC)c5ncnn5c4)[nH]c3cn2)CC1 (centres unmarked) [Example 316] | 9.5 | 33 | 80 |  |  | 
42 | Cc1c(-c2[nH]c3cnc(C4CCC(NC56CC(C5)C6)CC4)c(F)c3c2C(C)C)cn2ncnc2c1C (centres unmarked) [Example 239] | 2.6 | 2.6 | 15900 |  |  | 
43 | COC(C)(C)CNC1CCN(c2ncc3[nH]c(-c4cn5ncnc5c(C)c4C)c(C(C)C)c3c2C)CC1 [Example 173] | 1.5 | 0.54 | 653 |  |  | 
44 | COc1cc(-c2[nH]c3cnc(C4CCN(CC(F)(F)F)CC4)c(F)c3c2C(C)C)cn2ncnc12 [Example 127] | 47 | 150 | > 50000 |  |  | 
45 | COc1cc(-c2[nH]c3cnc(C4CCC(N5CC6(COC6)C5)C4)cc3c2C(C)C)cn2ncnc12 (centres unmarked) [Example 141] | 27 | 25 | 482 |  |  | 
46 | COc1cc(-c2[nH]c3cnc(N4CCN(C5CCN(C(C)C)CC5)C[C@H]4C)c(F)c3c2C(C)C)cn2ncnc12 [Example 451] | 2.6 |  |  | 5.7 | 792 | 
47 | Cc1c(-c2[nH]c3cnc(N4CCNCC4)c(F)c3c2C(C)C)cn2ncnc2c1C [Example 393] | 1.4 | 0.51 | 8730 |  |  | 
48 | COCCNC1CCN(c2ncc3[nH]c(-c4cc(OC)c5ncnn5c4)c(C(C)C)c3c2F)CC1 [Example 99] | 0.49 | 0.41 | 3980 |  |  | 
